From the supplement of paper PMC4862054

Assays:
Assay in all cases: normalised viability (% of control), CellTiter-Blue; higher = more viable cells (about 100 = DMSO control)
Details in all cases: incubation time: 72 h
CAL-85-1 [1] = system: CAL-85-1
Outline: (§1)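 The reported quantity is normalised viability at a single listed concentration of the series. Compound in 5 µl medium was pre-dispensed into 384-well plates and 20 µl of breast cancer cell suspension was added for 72 h. A 2 h, 37 °C CellTiter-Blue step (2.5 µl) preceded fluorescence reading at 560/590 nm, and plates were normalised to vehicle (100) and a positive kill control (0).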

CAL-51 [2] = system: CAL-51
Outline: as §1

HDQ-P1 [3] = system: HDQ-P1
Outline: as §1

BT-474 [4] = system: BT-474
Outline: as §1

HCC1937 [5] = system: HCC1937
Outline: as §1

HCC1599 [6] = system: HCC1599
Outline: as §1

HCC1143 [7] = system: HCC1143
Outline: as §1

SK-BR-3 [8] = system: SK-BR-3
Outline: as §1

MDA-MB-436 [9] = system: MDA-MB-436
Outline: as §1

DU-4475 [10] = system: DU-4475
Outline: as §1

MDA-MB-231 [11] = system: MDA-MB-231
Outline: as §1

CAL-51 [12] = system: CAL-51; remark: listed apart in the source
Outline: as §1

BT-474 [13] = system: BT-474; remark: listed apart in the source
Outline: as §1

HCC1937 [14] = system: HCC1937; remark: listed apart in the source
Outline: as §1

HCC1599 [15] = system: HCC1599; remark: listed apart in the source
Outline: as §1

SK-BR-3 [16] = system: SK-BR-3; remark: listed apart in the source
Outline: as §1

CAL-85-1 [17] = system: CAL-85-1; remark: listed apart in the source
Outline: as §1

DU-4475 [18] = system: DU-4475; remark: listed apart in the source
Outline: as §1

MDA-MB-231 [19] = system: MDA-MB-231; remark: listed apart in the source
Outline: as §1

CAL-148 = system: CAL-148
Outline: as §1

CAL-120 = system: CAL-120
Outline: as §1

BT-549 = system: BT-549
Outline: as §1

CAL-51 [20] = system: CAL-51; remark: listed apart in the source
Outline: as §1

MFM-223 = system: MFM-223
Outline: as §1

HDQ-P1 [21] = system: HDQ-P1; remark: listed apart in the source
Outline: as §1

BT-474 [22] = system: BT-474; remark: listed apart in the source
Outline: as §1

HCC1937 [23] = system: HCC1937; remark: listed apart in the source
Outline: as §1

MDA-MB-468 = system: MDA-MB-468
Outline: as §1

HCC1599 [24] = system: HCC1599; remark: listed apart in the source
Outline: as §1

MDA-MB-453 = system: MDA-MB-453
Outline: as §1

HCC1143 [25] = system: HCC1143; remark: listed apart in the source
Outline: as §1

SK-BR-3 [26] = system: SK-BR-3; remark: listed apart in the source
Outline: as §1

MDA-MB-436 [27] = system: MDA-MB-436; remark: listed apart in the source
Outline: as §1

Hs578T = system: Hs578T
Outline: as §1

## Cn1c(=O)n(-c2ccc(C(C)(C)C#N)cc2)c2c3cc(-c4cnc5ccccc5c4)ccc3ncc21 [NVP-BEZ235]
CAL-85-1 [1]; 1 nM
  normalised viability: 110%
CAL-51 [2]; 1 nM
  normalised viability: 106%
HDQ-P1 [3]; 1 nM
  normalised viability: 102%
BT-474 [4]; 10 nM
  normalised viability: 91.6%
HCC1937 [5]; 10 nM
  normalised viability: 59.9%
HCC1599 [6]; 10 nM
  normalised viability: 84.7%
HCC1143 [7]; 10 nM
  normalised viability: 70.9%
SK-BR-3 [8]; 10 nM
  normalised viability: 88.4%
MDA-MB-436 [9]; 10 nM
  normalised viability: 105%
DU-4475 [10]; 10 nM
  normalised viability: 107%
MDA-MB-231 [11]; 1000 nM
  normalised viability: 27.1%
CAL-51 [12]; 10 nM
  normalised viability: 54.6%
BT-474 [13]; 1000 nM
  normalised viability: 41%
HCC1937 [14]; 1000 nM
  normalised viability: 45.5%
HCC1599 [15]; 1000 nM
  normalised viability: 55.2%
SK-BR-3 [16]; 1000 nM
  normalised viability: 15.6%
CAL-85-1 [17]; 3 nM
  normalised viability: 84.5%
DU-4475 [18]; 3 nM
  normalised viability: 107%
MDA-MB-231 [19]; 100 nM
  normalised viability: 26.8%
CAL-148; 3 nM
  normalised viability: 93%
CAL-120; 100 nM
  normalised viability: 17.6%
BT-549; 100 nM
  normalised viability: 21.7%
CAL-51 [20]; 3 nM
  normalised viability: 84.7%
MFM-223; 100 nM
  normalised viability: 24.5%
HDQ-P1 [21]; 3 nM
  normalised viability: 94.5%
BT-474 [22]; 100 nM
  normalised viability: 42.9%
HCC1937 [23]; 100 nM
  normalised viability: 47.4%
MDA-MB-468; 100 nM
  normalised viability: 37%
HCC1599 [24]; 100 nM
  normalised viability: 64.8%
MDA-MB-453; 3 nM
  normalised viability: 87.9%
HCC1143 [25]; 100 nM
  normalised viability: 37.9%
SK-BR-3 [26]; 100 nM
  normalised viability: 21.9%
MDA-MB-436 [27]; 100 nM
  normalised viability: 68.2%
Hs578T; 100 nM
  normalised viability: 32.5%

## Cn1cncc1[C@@](N)(c1ccc(Cl)cc1)c1ccc2c(c1)c(-c1cccc(Cl)c1)cc(=O)n2C [Tipifarnib]
CAL-85-1 [1]; 10 nM
  normalised viability: 85.3%
CAL-51 [2]; 10 nM
  normalised viability: 99.9%
HDQ-P1 [3]; 10 nM
  normalised viability: 89.7%
BT-474 [4]; 100 nM
  normalised viability: 102%
HCC1937 [5]; 100 nM
  normalised viability: 64.9%
HCC1599 [6]; 100 nM
  normalised viability: 72.7%
HCC1143 [7]; 100 nM
  normalised viability: 61.6%
SK-BR-3 [8]; 100 nM
  normalised viability: 57.8%
MDA-MB-436 [9]; 100 nM
  normalised viability: 87.9%
DU-4475 [10]; 100 nM
  normalised viability: 54.9%
MDA-MB-231 [11]; 10000 nM
  normalised viability: 48.8%
CAL-51 [12]; 100 nM
  normalised viability: 63.4%
BT-474 [13]; 10000 nM
  normalised viability: 45%
HCC1937 [14]; 10000 nM
  normalised viability: 32.3%
HCC1599 [15]; 10000 nM
  normalised viability: 51.7%
SK-BR-3 [16]; 10000 nM
  normalised viability: 23.8%
CAL-85-1 [17]; 30 nM
  normalised viability: 70.1%
DU-4475 [18]; 30 nM
  normalised viability: 69.3%
MDA-MB-231 [19]; 1000 nM
  normalised viability: 61.4%
CAL-148; 30 nM
  normalised viability: 74.1%
CAL-120; 1000 nM
  normalised viability: 47.4%
BT-549; 1000 nM
  normalised viability: 75.8%
CAL-51 [20]; 30 nM
  normalised viability: 95.5%
MFM-223; 1000 nM
  normalised viability: 67.7%
HDQ-P1 [21]; 30 nM
  normalised viability: 68%
BT-474 [22]; 1000 nM
  normalised viability: 84.4%
HCC1937 [23]; 1000 nM
  normalised viability: 43.6%
MDA-MB-468; 1000 nM
  normalised viability: 95.5%
HCC1599 [24]; 1000 nM
  normalised viability: 62.2%
MDA-MB-453; 30 nM
  normalised viability: 82.2%
HCC1143 [25]; 1000 nM
  normalised viability: 59.1%
SK-BR-3 [26]; 1000 nM
  normalised viability: 66.1%
MDA-MB-436 [27]; 1000 nM
  normalised viability: 82.9%
Hs578T; 1000 nM
  normalised viability: 69.2%

## CN(C)C[C@@H]1CCn2cc(c3ccccc32)C2=C(C(=O)NC2=O)c2cn(c3ccccc23)CCO1 [Ruboxistaurin]
CAL-85-1 [1]; 10 nM
  normalised viability: 117%
CAL-51 [2]; 10 nM
  normalised viability: 91.8%
HDQ-P1 [3]; 10 nM
  normalised viability: 82.6%
BT-474 [4]; 100 nM
  normalised viability: 98.7%
HCC1937 [5]; 100 nM
  normalised viability: 85.3%
HCC1599 [6]; 100 nM
  normalised viability: 111%
HCC1143 [7]; 100 nM
  normalised viability: 128%
SK-BR-3 [8]; 100 nM
  normalised viability: 82.2%
MDA-MB-436 [9]; 100 nM
  normalised viability: 91.6%
DU-4475 [10]; 100 nM
  normalised viability: 95.6%
MDA-MB-231 [11]; 10000 nM
  normalised viability: 27.6%
CAL-51 [12]; 100 nM
  normalised viability: 88.8%
BT-474 [13]; 10000 nM
  normalised viability: 3.5%
HCC1937 [14]; 10000 nM
  normalised viability: 35.1%
HCC1599 [15]; 10000 nM
  normalised viability: 58.1%
SK-BR-3 [16]; 10000 nM
  normalised viability: 4%
CAL-85-1 [17]; 30 nM
  normalised viability: 105%
DU-4475 [18]; 30 nM
  normalised viability: 92.3%
MDA-MB-231 [19]; 1000 nM
  normalised viability: 88.2%
CAL-148; 30 nM
  normalised viability: 116%
CAL-120; 1000 nM
  normalised viability: 110%
BT-549; 1000 nM
  normalised viability: 87.6%
CAL-51 [20]; 30 nM
  normalised viability: 101%
MFM-223; 1000 nM
  normalised viability: 80.8%
HDQ-P1 [21]; 30 nM
  normalised viability: 84.3%
BT-474 [22]; 1000 nM
  normalised viability: 93.1%
HCC1937 [23]; 1000 nM
  normalised viability: 74%
MDA-MB-468; 1000 nM
  normalised viability: 85.2%
HCC1599 [24]; 1000 nM
  normalised viability: 91.3%
MDA-MB-453; 30 nM
  normalised viability: 99.9%
HCC1143 [25]; 1000 nM
  normalised viability: 109%
SK-BR-3 [26]; 1000 nM
  normalised viability: 86.6%
MDA-MB-436 [27]; 1000 nM
  normalised viability: 49.2%
Hs578T; 1000 nM
  normalised viability: 99.8%
